According to ChEMBL document CHEMBL1127147, “Rational design for cytosolic delivery of nucleoside monphosphates : SATE and DTE as enzyme-labile transient phosphate protecting groups” (Bioorg Med Chem Lett, 1993):

What was measured:
[1] = tested on: CEM-TK(-); assay: Tested for antiviral activity against HIV-1 infected human CEM-TK- cell line (deficient in thymidine kinase activity); assay type: functional, cell-based
[2] = tested on: CEM-SS; assay: Tested for antiviral activity against HIV-1 infected human CEM-SS cell line; assay type: functional, cell-based
[3] = tested on: CEM-SS; assay: Tested for cytotoxicity against human CEM-SS cell line; Percent reduction 40; assay type: functional
[4] = tested on: CEM-TK(-); assay: Tested for cytotoxicity against human CEM-TK- cell line (deficient in thymidine kinase activity); assay type: functional
[5] = tested on: CEM-SS; assay: Tested for cytotoxicity against human CEM-SS cell line; assay type: functional

Structure (SMILES) | EC50 [1] [µM] | EC50 [2] [µM] | CC50 [3] [µM] | CC50 [4] [µM] | CC50 [5] [µM]
O=c1ccn(C2CCC(COP(=O)(OCCSSCCO)OCCSSCCO)O2)c(=O)[nH]1 (stereo not drawn) | 8 | 60 | > 100 | 80 | –
CC(=O)SCCOP(=O)(OCCSC(C)=O)OCC1CCC(n2ccc(=O)[nH]c2=O)O1 (stereo not drawn) | 4 | 5 | – | 70 | 900
